Reference: US20050181459A1, “Method for mapping and eliminating T cell epitopes” (priority 2002, published 2005)
Where no end group is shown, it is not given here.

Columns and labels:
PBMC = assay: T cell activation assay (time course) of IFNα peptides, PBMC from 20 healthy donors and 20 IFN α2b-treated HCV patients; format: cell-based, human; settings: 20 healthy donors and 20 HCV patients previously treated with IFN α2b; 6-9 days culture; 3H-thymidine
[1] = Solubility of IFNα peptides; format: physicochemical; settings: in the T cell assay of Example 6

Row | solubility of peptide [1] | Sequence | percentage of donors whose PBMC responded to a peptide (SI greater than about 1.95) (PBMC)
1 |  | FNLFSTKDSSAAWDE (Potential T-cell Epitopes) [peptide 22] | 15%
2 |  | KEDSILAVRKYFQRI (Potential T-cell Epitopes) [compound 38] | 15%
3 |  | SLFSCLKDRHDFGFP (Potential T-cell Epitopes) [compound 9] | 15%
4 |  | SILAVRKYFQRITLY (Potential T-cell Epitopes) [peptide 39] | 25%
5 | insoluble | VLHEMIQQIFNLFST [compound 19, VLHEMIQQIFNLFST] | 
6 |  | RRISLFSCLKDRHDF (Potential T-cell Epitopes) [compound 8] | 15%
7 | insoluble | EMIQQIFNLFSTKDS [compound 20, EMIQQIFNLFSTKDS] | 
